Results: paper PMC7914897, “Cytotoxic Potential of a-Azepano- and 3-Amino-3,4-SeCo-Triterpenoids” (International Journal of Molecular Sciences, 2021)
Like-named read-outs stand apart in the source and are kept apart here.

Legend:
MOLT-4 (Leukemia) = test: NCI-60 screen (SRB, 48 h); conditions: Homo sapiens
CCRF-CEM (Leukemia) = test: NCI-60 screen (SRB, 48 h); conditions: Homo sapiens
HOP-62 (NSC lung cancer) = test: NCI-60 screen (SRB, 48 h); conditions: Homo sapiens
HOP-92 (NSC lung cancer) = test: NCI-60 screen (SRB, 48 h); conditions: Homo sapiens
OVCAR-3 (Ovarian cancer) = test: cells; conditions: Homo sapiens
COLO 205 (Colon cancer) = test: NCI-60 screen (SRB, 48 h); conditions: Homo sapiens
SK-OV-3 (Ovarian cancer) = test: NCI-60 screen (SRB, 48 h); conditions: Homo sapiens
Colon Cancer subpanel = test: NCI-60 screen, subpanel; conditions: Homo sapiens
SNB-75 (CNS cancer) = test: NCI-60 screen (SRB, 48 h); conditions: Homo sapiens
CNS cancer subpanel = test: NCI-60 screen, subpanel; conditions: Homo sapiens
T-47D (Breast cancer) = test: NCI-60 screen (SRB, 48 h); conditions: Homo sapiens, T47D
[1] = test system: panel of approximately 60 cancer cell lines; test: NCI-60 screen (SRB, 48 h), full panel
SK-MEL-28 (Melanoma) = test: NCI-60 screen (SRB, 48 h); conditions: Homo sapiens
SF-295 (CNS cancer) = test: NCI-60 screen (SRB, 48 h); conditions: Homo sapiens
Ovarian Cancer subpanel = test: NCI-60 screen, subpanel; conditions: Homo sapiens
EKVX (NSC lung cancer) = test: NCI-60 screen (SRB, 48 h); conditions: Homo sapiens
CAKI-1 (Renal cancer) = test: NCI-60 screen (SRB, 48 h); conditions: Homo sapiens
DU-145 (Prostate cancer) = test: NCI-60 screen (SRB, 48 h); conditions: Homo sapiens
HT29 (Colon cancer) = test: NCI-60 screen (SRB, 48 h); conditions: Homo sapiens
M14 (Melanoma) = test: NCI-60 screen (SRB, 48 h); conditions: Homo sapiens
SW-620 (Colon cancer) = test: NCI-60 screen (SRB, 48 h); conditions: Homo sapiens
[2] = test system: NCI-H322M (NSC lung cancer); test: NCI-60 screen (SRB, 48 h); conditions: Homo sapiens
A498 (Renal cancer) = test: NCI-60 screen (SRB, 48 h); conditions: Homo sapiens
Renal Cancer subpanel = test: NCI-60 screen, subpanel; conditions: Homo sapiens
OVCAR-5 (Ovarian cancer) = test: NCI-60 screen (SRB, 48 h); conditions: Homo sapiens
UO-31 (Renal cancer) = test: NCI-60 screen (SRB, 48 h); conditions: Homo sapiens
[3] = test system: NCI-H226 (NSC lung cancer); test: NCI-60 screen (SRB, 48 h); conditions: Homo sapiens

Compound `Cc1ccc(S(=O)(=O)OC[C@@]2(C)CC[C@]3(C)CC[C@]4(C)C(=C3C2)C=C[C@@H]2[C@@]3(C)CCCNC(C)(C)[C@@H]3CC[C@]24C)cc1` [Compound 16] has a GI50 (MOLT-4 (Leukemia); MOLT-4) of 1.84 µM, an IC (TGI) (MOLT-4 (Leukemia); MOLT-4, 48 h, read-out: TGI) of 4.16 µM and a GI50 (CCRF-CEM (Leukemia)) of 2.14 µM. For the same compound, the IC (TGI) (CCRF-CEM (Leukemia); 48 h, read-out: TGI) was 6.06 µM, the CC50 (CCRF-CEM (Leukemia); read-out: LC50) was greater than 100 µM and the GI50 (HOP-62 (NSC lung cancer); HOP-62) was 1.84 µM. It also gave an IC (TGI) (HOP-62 (NSC lung cancer); HOP-62, 48 h, read-out: TGI) of 3.59 µM, a GI50 (HOP-92 (NSC lung cancer); HOP-92) of 1.45 µM and an IC (TGI) (HOP-92 (NSC lung cancer); HOP-92, 48 h, read-out: TGI) of 2.97 µM. For the same compound, the CC50 (HOP-92 (NSC lung cancer); HOP-92, read-out: LC50) was 6.11 µM, the GI50 (OVCAR-3 (Ovarian cancer); OVCAR-3) was 1.88 µM and the IC (TGI) (OVCAR-3 (Ovarian cancer); OVCAR-3, 48 h, read-out: TGI) was 3.56 µM. The GI50 (COLO 205 (Colon cancer); COLO 205) was 1.62 µM, the IC (TGI) (COLO 205 (Colon cancer); COLO 205, 48 h, read-out: TGI) was 3.26 µM and the GI50 (SK-OV-3 (Ovarian cancer); SK-OV-3) was 1.79 µM. It also gave an IC (TGI) (SK-OV-3 (Ovarian cancer); SK-OV-3, 48 h, read-out: TGI) of 3.25 µM, a CC50 (SK-OV-3 (Ovarian cancer); SK-OV-3, read-out: LC50) of 5.91 µM and an IC (TGI) (Colon Cancer subpanel; 48 h, read-out: TGI MG_MID) of 3.3 µM. The GI50 (Colon Cancer subpanel; read-out: GI50 MG_MID) was 1.64 µM, the CC50 (Colon Cancer subpanel; read-out: LC50 MG_MID) was 6.94 µM and the GI50 (SNB-75 (CNS cancer); SNB-75) was 1.61 µM. It also gave an IC (TGI) (SNB-75 (CNS cancer); SNB-75, 48 h, read-out: TGI) of 3.1 µM, a CC50 (SNB-75 (CNS cancer); SNB-75, read-out: LC50) of 5.97 µM and an IC (TGI) (CNS cancer subpanel; 48 h, read-out: TGI MG_MID) of 3.4 µM. It also gave a GI50 (CNS cancer subpanel; read-out: GI50 MG_MID) of 1.77 µM, a CC50 (CNS cancer subpanel; read-out: LC50 MG_MID) of 6.49 µM and a GI50 (T-47D (Breast cancer)) of 1.55 µM. For the same compound, the IC (TGI) (T-47D (Breast cancer); 48 h, read-out: TGI) was 3.26 µM, the CC50 (T-47D (Breast cancer); read-out: LC50) was 6.85 µM and the “Positive Cytostatic Effect (cell lines with percent growth 0 to 50 / total)” value ([1]; 1 dose 10 µM) was 12/60. The “Positive Cytotoxic Effect (cell lines with percent growth < 0 / total)” value ([1]; 1 dose 10 µM) was 31/60, the “number of cancer cell lines the compound was active against” value ([1]; 1 dose 10 µM) was 40 cell lines and the activity at 10 µM ([1]; Homo sapiens, 48 h, read-out: Mean Growth, %) was -0.81%. It also gave an activity at 10 µM ([1]; Homo sapiens, 48 h, read-out: Range of Growth, %) of -99.2 to 104%, an IC (TGI) ([1]; Homo sapiens, 48 h, read-out: TGI MG_MID60, average over all cell lines) of 3.52 µM and a GI50 ([1]; Homo sapiens, read-out: GI50 MG_MID60) of 1.72 µM. It also gave a GI50 ([1]; Homo sapiens, read-out: GI50 against all human tumor cell lines) of less than 3 µM, a GI50 ([1]; Homo sapiens, read-out: GI50 against the most sensitive cell lines) of 0.2 to 0.94 µM and a GI50 (SK-MEL-28 (Melanoma); SK-MEL-28) of 1.77 µM. It also gave an IC (TGI) (SK-MEL-28 (Melanoma); SK-MEL-28, 48 h, read-out: TGI) of 3.26 µM, a CC50 (SK-MEL-28 (Melanoma); SK-MEL-28, read-out: LC50) of 5.97 µM and a GI50 (SF-295 (CNS cancer); SF-295) of 1.78 µM. The IC (TGI) (SF-295 (CNS cancer); SF-295, 48 h, read-out: TGI) was 3.29 µM, the CC50 (SF-295 (CNS cancer); SF-295, read-out: LC50) was 6.08 µM and the IC (TGI) (Ovarian Cancer subpanel; 48 h, read-out: TGI MG_MID) was 3.68 µM. For the same compound, the GI50 (Ovarian Cancer subpanel; read-out: GI50 MG_MID) was 1.86 µM, the CC50 (Ovarian Cancer subpanel; read-out: LC50 MG_MID) was 29.4 µM and the GI50 (EKVX (NSC lung cancer)) was 1.7 µM. The IC (TGI) (EKVX (NSC lung cancer); 48 h, read-out: TGI) was 3.29 µM, the CC50 (EKVX (NSC lung cancer); read-out: LC50) was 6.35 µM and the GI50 (CAKI-1 (Renal cancer); CAKI-1) was 1.61 µM. For the same compound, the IC (TGI) (CAKI-1 (Renal cancer); CAKI-1, 48 h, read-out: TGI) was 3.06 µM, the CC50 (CAKI-1 (Renal cancer); CAKI-1, read-out: LC50) was 5.81 µM and the GI50 (DU-145 (Prostate cancer); DU-145) was 1.81 µM. For the same compound, the IC (TGI) (DU-145 (Prostate cancer); DU-145, 48 h, read-out: TGI) was 3.4 µM, the CC50 (DU-145 (Prostate cancer); DU-145, read-out: LC50) was 6.39 µM and the GI50 (HT29 (Colon cancer); HT-29) was 1.48 µM. It also gave an IC (TGI) (HT29 (Colon cancer); HT-29, 48 h, read-out: TGI) of 3.08 µM, a GI50 (M14 (Melanoma); M14) of 1.8 µM and an IC (TGI) (M14 (Melanoma); M14, 48 h, read-out: TGI) of 3.62 µM. For the same compound, the GI50 (SW-620 (Colon cancer); SW-620) was 1.78 µM, the IC (TGI) (SW-620 (Colon cancer); SW-620, 48 h, read-out: TGI) was 3.54 µM and the CC50 (SW-620 (Colon cancer); SW-620, read-out: LC50) was 7.04 µM. For the same compound, the GI50 [2] was 1.62 µM, the IC (TGI) ([2]; 48 h, read-out: TGI) was 3.01 µM and the CC50 ([2]; read-out: LC50) was 5.62 µM. For the same compound, the GI50 (A498 (Renal cancer); A498) was 1.71 µM, the IC (TGI) (A498 (Renal cancer); A498, 48 h, read-out: TGI) was 3.13 µM and the CC50 (A498 (Renal cancer); A498, read-out: LC50) was 5.74 µM. For the same compound, the IC (TGI) (Renal Cancer subpanel; 48 h, read-out: TGI MG_MID) was 3.19 µM, the GI50 (Renal Cancer subpanel; read-out: GI50 MG_MID) was 1.67 µM and the CC50 (Renal Cancer subpanel; read-out: LC50 MG_MID) was 5.92 µM. It also gave a GI50 (OVCAR-5 (Ovarian cancer); OVCAR-5) of 1.77 µM, an IC (TGI) (OVCAR-5 (Ovarian cancer); OVCAR-5, 48 h, read-out: TGI) of 3.21 µM and a CC50 (OVCAR-5 (Ovarian cancer); OVCAR-5, read-out: LC50) of 5.81 µM. It also gave a GI50 (UO-31 (Renal cancer); UO-31) of 1.46 µM, an IC (TGI) (UO-31 (Renal cancer); UO-31, 48 h, read-out: TGI) of 2.85 µM and a CC50 (UO-31 (Renal cancer); UO-31, read-out: LC50) of 5.59 µM. It also gave a GI50 ([3]; NCI-H226) of 1.66 µM and an IC (TGI) ([3]; NCI-H226, 48 h, read-out: TGI) of 3.47 µM.
